Results as given in paper PMC8369186, “Ligand-Based and Docking-Based Virtual Screening of MDM2 Inhibitors as Potent Anticancer Agents” (Computational and Mathematical Methods in Medicine, 2021).
Read-outs that look alike come from different tables or passages of the source.

Experiments:
MDM2 = MDM2 (Homo sapiens, UniProt Q00987); assay: MDM2 binding assay (fluorescence polarization); settings: for Inhibition (200 μM, %): 200 μM compound; for inhibition at 200 µM: read-out: Inhibition (200 μM, %), 200 μM compound
Sequence of MDM2 (Q00987 whole entry): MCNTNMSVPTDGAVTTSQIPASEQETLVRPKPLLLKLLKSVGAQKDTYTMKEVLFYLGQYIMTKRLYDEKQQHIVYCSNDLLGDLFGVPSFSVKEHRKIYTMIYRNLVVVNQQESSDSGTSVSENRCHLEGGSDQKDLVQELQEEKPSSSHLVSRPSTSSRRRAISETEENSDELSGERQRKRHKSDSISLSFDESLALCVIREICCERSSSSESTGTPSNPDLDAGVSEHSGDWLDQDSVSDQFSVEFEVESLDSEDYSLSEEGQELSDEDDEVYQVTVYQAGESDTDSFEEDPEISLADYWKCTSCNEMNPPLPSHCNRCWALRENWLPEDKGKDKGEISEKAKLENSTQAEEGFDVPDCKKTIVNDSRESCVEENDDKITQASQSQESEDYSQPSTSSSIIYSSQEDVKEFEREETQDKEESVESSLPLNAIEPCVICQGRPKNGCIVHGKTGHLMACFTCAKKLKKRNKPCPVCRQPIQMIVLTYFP
Protocol: The MDM2 binding tests of all 17 compounds were carried out by a fluorescence polarization assay.
30 nM preincubated (30 min) MDM2 and 10 nM PMDM-F peptide in reaction buffer (100 μL, potassium phosphate, 100 mM; bovine gamma globulin, […]; sodium azide, 0.02%) were added into a 96-well plate containing tested compounds at pH 7.5. […] The Ki values were calculated according to a reported method.

Cathepsin K = molecular target: T1, Cathepsin K (Homo sapiens, UniProt P43235); assay: Cathepsin K inhibitory activity; format: biochemical
T1 sequence (P43235 115-329): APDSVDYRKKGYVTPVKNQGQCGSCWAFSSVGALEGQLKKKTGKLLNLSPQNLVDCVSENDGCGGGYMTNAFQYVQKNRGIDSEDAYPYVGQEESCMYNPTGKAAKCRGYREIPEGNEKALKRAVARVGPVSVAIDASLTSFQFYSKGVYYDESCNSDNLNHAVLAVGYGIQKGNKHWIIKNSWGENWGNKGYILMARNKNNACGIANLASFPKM

MCF7 (p53 -/-) cells = assay: cells; format: cell-based; settings: Homo sapiens, read-out: IC50 (μM) ± SD MCF7 (p53 -/-)
Protocol: (§1) Compounds were tested at six concentrations (0.001–100 μM).
(§2) The cells were seeded into a 96-well plate and incubated at 37°C in 5% CO2 for 24 h, after which the test compounds were added to the culture medium and the cells were incubated for 48 h. 20 μL fresh MTT was added to each well, and the cells were incubated at 37°C in 5% CO2 for 4 h. After removing the culture medium, 150 μL DMSO was added to dissolve the formazan crystals. The absorbance at 540 nm was measured using a microplate reader. The results, expressed as IC50 values, were the average of three determinations and were calculated using nonlinear regression analysis.

HCT116 (p53 +/+) cells = assay: cells; format: cell-based, human; settings: read-out: IC50 (μM) ± SD HCT116 (p53 +/+)
Protocol: as §1, §2

MCF7 (p53 +/+) cells = assay: cells; format: cell-based, human; settings: read-out: IC50 (μM) ± SD MCF7 (p53 +/+)
Protocol: as §1, §2

HCT116 (p53 -/-) cells = assay: cells; format: cell-based, human; settings: read-out: IC50 (μM) ± SD HCT116 (p53 -/-)
Protocol: as §1, §2

[1] = Homo sapiens, HCT-116, MTT, 48 h

Row | Compound | Ki (MDM2) [µM] | Inhibition (200 μM, %) (MDM2; 200 µM) [%] | inhibition at 200 µM (MDM2) [%] | IC50 (Cathepsin K; read-out: Cathepsin K IC50) [µM] | further results
1 | COC(=O)C1C(CBr)N1N1C(=O)c2ccccc2C1=O (stereo not shown) [Compound 13, Methyl 3-(bromomethyl)-1-(1,3-dioxo-1,3-dihydro-2H-isoindol-2-yl)-2-aziridinecarboxylate] | > 200 | 42.9 | < 50 | – | IC50 (Cathepsin K): > 200 µM
2 | CCOC(=O)c1cc(C(C)c2ccccc2)sc1NC(=O)c1cccc(COc2ccccc2Cl)c1 (stereo not shown) [Compound 1, Ethyl 2-({3-[(2-chlorophenoxy)methyl]benzoyl}amino)-5-(1-phenylethyl)-3-thiophenecarboxylate] | 43.5 | 80.2 | > 80 | > 200 | –
3 | O=S(=O)(Nc1nc2ccccc2nc1Nc1cccc(O)c1)c1ccc(Cl)cc1 [Compound 5, 4-chloro-N-[3-(3-hydroxyanilino)-2-quinoxalinyl]benzenesulfonamide] | 8.5 | 90.31 | > 80 | > 200 | IC50 (MCF7 (p53 -/-) cells; MCF7, 48 h): 56.4 ± 4.12 µM; IC50 (HCT116 (p53 +/+) cells; Homo sapiens, HCT-116, 48 h): 17.4 ± 1.8 µM; IC50 (MCF7 (p53 +/+) cells; Homo sapiens, MCF7, 48 h): 40.2 ± 1.77 µM; IC50 (HCT116 (p53 -/-) cells; Homo sapiens, HCT-116, 48 h): 40.8 ± 3.54 µM
4 | C=CCn1c(COc2ccccc2)nnc1SC(C)C(=O)NN=Cc1ccccc1F (stereo not shown) [Compound 8, 2-{[4-allyl-5-(phenoxymethyl)-4H-1,2,4-triazol-3-yl]sulfanyl}-N'-(2-fluorobenzylidene)propanohydrazide] | 23.4 | 84.7 | > 80 | > 200 | IC50 (MCF7 (p53 -/-) cells; MCF7, MTT, 48 h): > 100 µM; IC50 (HCT116 (p53 +/+) cells; [1]): > 100 µM; IC50 (MCF7 (p53 +/+) cells; Homo sapiens, MCF7, MTT, 48 h): > 100 µM; IC50 (HCT116 (p53 -/-) cells; [1]): > 100 µM
5 | COc1ccc(C2=N[C@@H](c3ccc(Cl)cc3)[C@@H](c3ccc(Cl)cc3)N2C(=O)N2CCNC(=O)C2)c(OC(C)C)c1 [Nutlin-3a, reference compound] | – | – | – | – | IC50 (HCT116 (p53 +/+) cells; MTT, 48 h): 18.1 ± 2.17 µM; IC50 (MCF7 (p53 +/+) cells; MTT, 48 h): 32.2 ± 1.49 µM; IC50 (HCT116 (p53 -/-) cells; MTT, 48 h): 40.7 ± 1.47 µM
6 | CCOC(=O)c1c(-c2ccccc2)oc2ccc(O)c(CN(C)C)c12 [Compound 17, Ethyl 4-[(dimethylamino)methyl]-5-hydroxy-2-phenyl-1-benzofuran-3-carboxylate] | > 200 | 47.3 | < 50 | > 200 | –
7 | CCc1nnc(NC(=O)CSc2nnc(COc3ccccc3)n2-c2ccc(C)cc2)s1 [Compound 7, N-(5-ethyl-1,3,4-thiadiazol-2-yl)-2-{[4-(4-methylphenyl)-5-(phenoxymethyl)-4H-1,2,4-triazol-3-yl]sulfanyl}acetamide] | 98.3 | – | 63.7 | > 200 | –
8 | CC(C)N(C(=O)Cn1c(COc2ccc3ccccc3c2)nc2ccccc21)c1ccccc1 [Compound 4, N-isopropyl-2-{2-[(2-naphthyloxy)methyl]-1H-benzimidazol-1-yl}-N-phenylacetamide] | 99.5 | – | 76.3 | > 200 | –
9 | CC(C)(F)C[C@H](N[C@@H](c1ccc(-c2ccc(S(C)(=O)=O)cc2)cc1)C(F)(F)F)C(=O)NC1(C#N)CC1 [Odancatib, reference compound] | – | – | – | 0.001 | –
10 | O=C(O)CC1c2ccccc2CCN1S(=O)(=O)c1ccccc1 (stereo not shown) [Compound 15, [2-(phenylsulfonyl)-1,2,3,4-tetrahydroisoquinolin-1-yl]acetic acid] | 23.1 | 82.1 | > 80 | > 200 | IC50 (MCF7 (p53 -/-) cells; MCF7, MTT, 48 h): > 100 µM; IC50 (HCT116 (p53 +/+) cells; [1]): 28.1 ± 2.53 µM; IC50 (MCF7 (p53 +/+) cells; Homo sapiens, MCF7, MTT, 48 h): > 100 µM; IC50 (HCT116 (p53 -/-) cells; [1]): 51.7 ± 4.15 µM
11 | CCOC(=O)c1nnn(-c2nonc2N)c1CNc1ccccc1 [Compound 14, Ethyl 1-(4-amino-1,2,5-oxadiazol-3-yl)-5-(anilinomethyl)-1H-1,2,3-triazole-4-carboxylate] | 127 | – | 68.6 | > 200 | –
12 | CCOC(=O)/C=C1\NC(C)(C)Cc2cc(OC)c(OC)cc21 [Compound 6, Ethyl (6,7-dimethoxy-3,3-dimethyl-3,4-dihydro-1(2H)-isoquinolinylidene)acetate] | > 200 | 46.6 | < 50 | > 200 | –
13 | Cc1nn(-c2ccccc2)c(O)c1/N=N/c1cccc2ncccc12 [Compound 16, 3-Methyl-1-phenyl-4-(quinolin-5-yldiazenyl)-1H-pyrazol-5-ol] | – | – | 72.4 | > 200 | Ki (MDM2; fluorescence polarization, eight concentrations 0.091–200 μM): 64.6 µM
14 | O=C(c1cc2n(n1)C(C(F)(F)F)CC(c1ccc(Br)cc1)N2)N(Cc1ccccc1)c1ccccc1 (stereo not shown) [Compound 9, N-benzyl-5-(4-bromophenyl)-N-phenyl-7-(trifluoromethyl)-4,5,6,7-tetrahydropyrazolo[1,5-a]pyrimidine-2-carboxamide] | > 200 | 37.6 | < 50 | > 200 | –
15 | C=CCn1c(SCC(=O)N2N=C(c3ccco3)CC2c2ccco2)nnc1-c1ccncc1 (stereo not shown) [Compound 2, 4-allyl-5-(4-pyridinyl)-4H-1,2,4-triazol-3-yl 2-[3,5-di(2-furyl)-4,5-dihydro-1H-pyrazol-1-yl]-2-oxoethyl sulfide] | 9.5 | 95.8 | > 80 | > 200 | IC50 (MCF7 (p53 -/-) cells; MCF7, MTT, 48 h): > 100 µM; IC50 (HCT116 (p53 +/+) cells; [1]): 35.5 ± 1.48 µM; IC50 (MCF7 (p53 +/+) cells; Homo sapiens, MCF7, MTT, 48 h): > 100 µM; IC50 (HCT116 (p53 -/-) cells; [1]): 58.2 ± 4.57 µM
16 | COc1cccc(OCC(=O)N(Cc2nc(-c3ccccc3)no2)C2CCCCC2)c1 [Compound 10, N-cyclohexyl-2-(3-methoxyphenoxy)-N-[(3-phenyl-1,2,4-oxadiazol-5-yl)methyl]acetamide] | 3.2 | 96.5 | > 80 | > 200 | fold less potent in MDM2 binding affinity than nutlin-3a (MDM2; versus nutlin-3a): approximately 20 fold; IC50 (MCF7 (p53 -/-) cells; MCF7, MTT, 48 h): 26.7 ± 1.65 µM; IC50 (HCT116 (p53 +/+) cells; Homo sapiens, HCT-116, 48 h): 12.6 ± 2.32 µM; IC50 (MCF7 (p53 +/+) cells; Homo sapiens, MCF7, 48 h): 19.4 ± 2.26 µM; IC50 (HCT116 (p53 -/-) cells; Homo sapiens, HCT-116, 48 h): 24.1 ± 2.31 µM
17 | COc1ccc(OCc2nnc3sc(COc4ccccc4Cl)nn23)cc1 [Compound 11, 6-[(2-chlorophenoxy)methyl]-3-[(4-methoxyphenoxy)methyl][1,2,4]triazolo[3,4-b][1,3,4]thiadiazole] | > 200 | 32.3 | < 50 | > 200 | –
18 | [N-]=[N+]=CC(=O)C(O)(c1ccccc1)C(Cl)c1ccccc1 (stereo not shown) [Compound 12, 4-chloro-1-diazo-3-hydroxy-3,4-diphenyl-2-butanone] | > 200 | 18.8 | – | > 200 | Inhibition (200 μM, %) (MDM2; listed as AB-131/42300827, 200 µM): < 50%
19 | O=c1nc(SCc2nc3ccccc3n2Cc2ccccc2)[nH]c2ccccc12 [Compound 3, 2-{[(1-benzyl-1H-benzimidazol-2-yl)methyl]sulfanyl}-4(1H)-quinazolinone] | 104 | – | 62.4 | > 200 | –
